Test results as given in US10202361B2, “Pyridazinones as herbicides” (E I DU PONT DE NEMOURS AND COMPANY, priority 2014, dated 2019).
Where two headings read alike, the source gives them in different places.

Columns and labels:
Experiment in all cases: Test C pre-/postemergence greenhouse herbicide test
Format in all cases: in vivo
[1] = tested on: blackgrass (Alopecurus myosuroides); settings: for pest or weed control at 31 g/ha / pest or weed control at 62 g/ha / pest or weed control at 125 g/ha / pest or weed control at 250 g/ha: Alopecurus myosuroides, Blackgrass, read-out: Plant response rating; for pest or weed control at 31 g/ha: 31 g ai/ha; for pest or weed control at 62 g/ha: 62 g ai/ha; for Plant response rating, Blackgrass: visual rating on scale 0 (no effect) to 100 (complete control), 13 to 15 d; for pest or weed control at 125 g/ha: 125 g ai/ha; for pest or weed control at 250 g/ha: 250 g ai/ha
Outline: (§1)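 Plant response is scored on a 0–100 scale, where 100 means complete control, by visual comparison with controls 13 to 15 d after greenhouse treatment. Applications are made pre- and postemergence using a surfactant-containing, non-phytotoxic solvent formulation.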

soybean (Glycine max) = settings: for plant injury at 62 g/ha: 62 g ai/ha; for Plant response rating, Soybean: visual rating on scale 0 (no effect) to 100 (complete control), 13 to 15 d; for plant injury at 125 g/ha: 125 g ai/ha; for plant injury at 250 g/ha: 250 g ai/ha
Outline: as §1

[2] = tested on: foxtail, giant (giant foxtail, Setaria faberii); settings: for Plant response rating, Foxtail, Giant: visual rating on scale 0 (no effect) to 100 (complete control), 13 to 15 d; for pest or weed control at 31 g/ha / pest or weed control at 62 g/ha / pest or weed control at 125 g/ha / pest or weed control at 250 g/ha: Setaria faberi, Foxtail, Giant, read-out: Plant response rating; for pest or weed control at 31 g/ha: 31 g ai/ha; for pest or weed control at 62 g/ha: 62 g ai/ha; for pest or weed control at 125 g/ha: 125 g ai/ha; for pest or weed control at 250 g/ha: 250 g ai/ha
Outline: as §1

[3] = tested on: wheat (winter wheat, Triticum aestivum); settings: for Plant response rating, Wheat: visual rating on scale 0 (no effect) to 100 (complete control), 13 to 15 d; for plant injury at 62 g/ha: 62 g ai/ha; for plant injury at 125 g/ha: 125 g ai/ha; for plant injury at 250 g/ha: 250 g ai/ha
Outline: as §1

[4] = tested on: waterhemp (common waterhemp, Amaranthus rudis); settings: for Plant response rating, Waterhemp: visual rating on scale 0 (no effect) to 100 (complete control), 13 to 15 d; for Plant response rating: Waterhemp
Outline: as §1

[5] = tested on: velvetleaf (Abutilon theophrasti); settings: for pest or weed control at 62 g/ha: 62 g ai/ha; for Plant response rating, Velvetleaf: visual rating on scale 0 (no effect) to 100 (complete control), 13 to 15 d; for pest or weed control at 125 g/ha: 125 g ai/ha; for pest or weed control at 250 g/ha: 250 g ai/ha
Outline: as §1

[6] = tested on: morningglory (Ipomoea coccinea); settings: for Plant response rating: Morningglory; for Plant response rating, Morningglory: visual rating on scale 0 (no effect) to 100 (complete control), 13 to 15 d
Outline: as §1

[7] = tested on: barnyardgrass (Echinochloa crus-galli); settings: for Plant response rating: Barnyardgrass; for Plant response rating, Barnyardgrass: visual rating on scale 0 (no effect) to 100 (complete control), 13 to 15 d
Outline: as §1

[8] = Glycine max, pre-emergence, Soybean, Preemergence, read-out: Plant response rating
[9] = Triticum aestivum, pre-emergence, Wheat, Preemergence, read-out: Plant response rating
[10] = Abutilon theophrasti, pre-emergence, Velvetleaf, Preemergence, read-out: Plant response rating
[11] = Glycine max, post-emergence, Soybean, Postemergence, read-out: Plant response rating
[12] = Triticum aestivum, post-emergence, Wheat, Postemergence, read-out: Plant response rating
[13] = Abutilon theophrasti, post-emergence, Velvetleaf, Postemergence, read-out: Plant response rating

CCOc1cc(=O)n(-c2ccc(F)cc2)nc1C(O)c1ccnc(C(F)(F)F)c1 (stereo not drawn) [Compound 23, 5-ethoxy-2-(4-fluorophenyl)-6-[hydroxy[2-(trifluoromethyl)-4-pyridinyl]methyl]-3(2H)-pyridazinone]
pest or weed control at 31 g/ha ([1]; pre-emergence, Preemergence): 50%
pest or weed control at 62 g/ha ([1]; pre-emergence, Preemergence): 5%
Plant response rating, Blackgrass ([1]; Preemergence, 8 g ai/ha): 0
Plant response rating, Blackgrass ([1]; Preemergence, 16 g ai/ha): 0
plant injury at 62 g/ha (soybean (Glycine max); [8]): 25%
Plant response rating, Soybean (soybean (Glycine max); Preemergence, 8 g ai/ha): 0
Plant response rating, Soybean (soybean (Glycine max); Preemergence, 16 g ai/ha): 0
Plant response rating, Foxtail, Giant ([2]; Preemergence, 8 g ai/ha): 5
Plant response rating, Foxtail, Giant ([2]; Preemergence, 16 g ai/ha): 55
pest or weed control at 31 g/ha ([2]; pre-emergence, Preemergence): 75%
pest or weed control at 62 g/ha ([2]; pre-emergence, Preemergence): 90%
Plant response rating, Wheat ([3]; Preemergence, 8 g ai/ha): 0
Plant response rating, Wheat ([3]; Preemergence, 16 g ai/ha): 0
plant injury at 62 g/ha [3, 9]: 10%
Plant response rating, Waterhemp ([4]; Preemergence, 8 g ai/ha): 85
Plant response rating, Waterhemp ([4]; Preemergence, 16 g ai/ha): 100
Plant response rating ([4]; Preemergence, 62 g ai/ha): 100
pest or weed control at 62 g/ha [5, 10]: 100%
Plant response rating, Velvetleaf ([5]; Preemergence, 8 g ai/ha): 0
Plant response rating, Velvetleaf ([5]; Preemergence, 16 g ai/ha): 15
Plant response rating ([6]; Preemergence, 31 g ai/ha): 55
Plant response rating ([6]; Preemergence, 62 g ai/ha): 98
Plant response rating, Morningglory ([6]; Preemergence, 8 g ai/ha): 10
Plant response rating, Morningglory ([6]; Preemergence, 16 g ai/ha): 20
Plant response rating ([7]; Preemergence, 31 g ai/ha): 25
Plant response rating ([7]; Preemergence, 62 g ai/ha): 25
Plant response rating, Barnyardgrass ([7]; Preemergence, 8 g ai/ha): 0
Plant response rating, Barnyardgrass ([7]; Preemergence, 16 g ai/ha): 0

Cc1cc(=O)n(-c2ccc(C(F)(F)F)cc2)nc1Cc1ccnc(C(F)(F)F)c1 [Compound 2, 5-methyl-2-[4-(trifluoromethyl)phenyl]-6-[[2-(trifluoromethyl)-4-pyridinyl]methyl]-3(2H)-pyridazinone]
pest or weed control at 31 g/ha ([1]; post-emergence, Postemergence): 5%
pest or weed control at 62 g/ha ([1]; post-emergence, Postemergence): 5%
pest or weed control at 125 g/ha ([1]; post-emergence, Postemergence): 10%
pest or weed control at 250 g/ha ([1]; post-emergence, Postemergence): 15%
pest or weed control at 31 g/ha ([1]; pre-emergence, Preemergence): 10%
pest or weed control at 62 g/ha ([1]; pre-emergence, Preemergence): 45%
pest or weed control at 125 g/ha ([1]; pre-emergence, Preemergence): 90%
pest or weed control at 250 g/ha ([1]; pre-emergence, Preemergence): 90%
plant injury at 31 g/ha (soybean (Glycine max); Glycine max, post-emergence, Soybean, Postemergence, 31 g ai/ha, read-out: Plant response rating): 20%
plant injury at 62 g/ha (soybean (Glycine max); [11]): 30%
plant injury at 125 g/ha (soybean (Glycine max); [11]): 40%
plant injury at 250 g/ha (soybean (Glycine max); [11]): 40%
plant injury at 62 g/ha (soybean (Glycine max); [8]): 25%
plant injury at 125 g/ha (soybean (Glycine max); [8]): 55%
plant injury at 250 g/ha (soybean (Glycine max); [8]): 60%
pest or weed control at 31 g/ha ([2]; post-emergence, Postemergence): 10%
pest or weed control at 62 g/ha ([2]; post-emergence, Postemergence): 10%
pest or weed control at 125 g/ha ([2]; post-emergence, Postemergence): 25%
pest or weed control at 250 g/ha ([2]; post-emergence, Postemergence): 25%
pest or weed control at 31 g/ha ([2]; pre-emergence, Preemergence): 45%
pest or weed control at 62 g/ha ([2]; pre-emergence, Preemergence): 98%
pest or weed control at 125 g/ha ([2]; pre-emergence, Preemergence): 100%
pest or weed control at 250 g/ha ([2]; pre-emergence, Preemergence): 100%
plant injury at 31 g/ha ([3]; Triticum aestivum, post-emergence, Wheat, Postemergence, 31 g ai/ha, read-out: Plant response rating): 5%
plant injury at 62 g/ha [3, 12]: 5%
plant injury at 125 g/ha [3, 12]: 5%
plant injury at 250 g/ha [3, 12]: 5%
plant injury at 62 g/ha [3, 9]: 0%
plant injury at 125 g/ha [3, 9]: 10%
plant injury at 250 g/ha [3, 9]: 30%
Plant response rating ([4]; Postemergence, 31 g ai/ha): 75
Plant response rating ([4]; Postemergence, 62 g ai/ha): 75
Plant response rating ([4]; Postemergence, 125 g ai/ha): 75
Plant response rating ([4]; Postemergence, 250 g ai/ha): 80
Plant response rating ([4]; Preemergence, 62 g ai/ha): 100
Plant response rating ([4]; Preemergence, 125 g ai/ha): 100
Plant response rating ([4]; Preemergence, 250 g ai/ha): 100
pest or weed control at 31 g/ha ([5]; Abutilon theophrasti, post-emergence, Velvetleaf, Postemergence, 31 g ai/ha, read-out: Plant response rating): 25%
pest or weed control at 62 g/ha [5, 13]: 30%
pest or weed control at 125 g/ha [5, 13]: 30%
pest or weed control at 250 g/ha [5, 13]: 35%
pest or weed control at 62 g/ha [5, 10]: 40%
pest or weed control at 125 g/ha [5, 10]: 85%
pest or weed control at 250 g/ha [5, 10]: 85%
Plant response rating ([6]; Postemergence, 31 g ai/ha): 10
Plant response rating ([6]; Postemergence, 125 g ai/ha): 15
Plant response rating ([6]; Postemergence, 250 g ai/ha): 15
Plant response rating ([6]; Preemergence, 31 g ai/ha): 55
Plant response rating ([6]; Preemergence, 62 g ai/ha): 65
Plant response rating ([6]; Preemergence, 125 g ai/ha): 85
Plant response rating ([6]; Preemergence, 250 g ai/ha): 100
Plant response rating ([7]; Postemergence, 31 g ai/ha): 5
Plant response rating ([7]; Postemergence, 62 g ai/ha): 10
Plant response rating ([7]; Postemergence, 125 g ai/ha): 10
Plant response rating ([7]; Postemergence, 250 g ai/ha): 25
Plant response rating ([7]; Preemergence, 31 g ai/ha): 65
Plant response rating ([7]; Preemergence, 62 g ai/ha): 70
Plant response rating ([7]; Preemergence, 125 g ai/ha): 90
Plant response rating ([7]; Preemergence, 250 g ai/ha): 98
